Experimental data from article PMC9549282, “Transcriptome analysis of megalurothrips usitatus (Bagnall) identifies olfactory genes with ligands binding characteristics of MusiOBP1 and MusiCSP1” (Frontiers in Physiology, 2022).
pKd, pKi: −log10 of the molar value.

Each compound was assayed against T1, MusiCSP1 (assay: fluorescent probe titration, Scatchard). Conditions: excitation 337 nm; labelled compound (fluorescent probe).
T1 construct: pET32a(+) BamHI/HindIII fusion (about 31 kDa) in E. coli BL21(DE3), Ni-NTA, His-tag fusion cut off with enterokinase
Assay type: binding, Megalurothrips usitatus

SMILES	pKd
c1ccc(Nc2cccc3ccccc23)cc1 [1-NPN]	5.08

Each compound was assayed against T1, MusiCSP1 (assay: 1-NPN fluorescence displacement). Conditions: 2 μM protein, 2 μM 1-NPN; ligand 2-16 μM; competitive with 1-NPN.
Assay type: binding, Megalurothrips usitatus
Source text: 1-NPN fluorescence displacement on MusiCSP1

pKi	SMILES
4.22	CCCCCC(=O)CC [3-Octanone]
4.44	CC(C)=CCC/C(C)=C/CO [Geraniol]
4.60	Cc1occc(=O)c1O [3-hydroxy-2-Methyl-4-pvrone]
3.92	C=C1CC/C=C(\C)CC[C@@H]2[C@@H]1CC2(C)C [β-Caryophyllene]
4.10	CC(C)=CCC/C(C)=C\CO [Nerol]
4.41	CC(C)=CCCC(C)CCO (stereo not drawn) [β-citronellol]
4.41	O=CCCc1ccccc1 [3-Benzene propanal]

SMILES	pKi
Cc1ccccc1C [O-Xylene]	4.51
COc1ccc(C=O)cc1 [P-Anisaldehyde]	4.37
